According to PubChem BioAssay (NCI):
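Compound exposure: 48 hours, 5 concentrations, 96-well plates. At the TGI there is no net growth.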

The compounds below were run on SK-MEL-2 melanoma (assay: NCI tumour cell line growth inhibition, 48 h).

| SMILES | TGI |
| --- | --- |
| O=C(/C=C/c1ccc2c(c1)OCO2)Cc1nc2ncccc2[nH]c1=O | > 100 µM |
| CC(=O)Nc1nc(NC(C)=O)c2[nH]c(CO)nc2n1 | > 100 µM |
| COC(=O)C1CC(C=[N+](C)C)=C(SC)N1C(=O)OCc1ccccc1 (centres undefined) | > 100 µM |
| Nc1nccc(-c2c[nH]c3cc(Br)ccc23)n1 | 47.2 µM |

These compounds were tested on SK-MEL-28 melanoma (assay: NCI tumour cell line growth inhibition, 48 h).

| SMILES | TGI |
| --- | --- |
| O=C(O)c1nc2nc(Cl)c(Cl)nc2[nH]1 | > 100 µM |
| CN(C)CCNS(=O)(=O)c1ccc(N)cc1 | > 100 µM |
| COc1ccc(N=NC(=Nc2ccccc2)c2ccc(N(CCC#N)CCC#N)cc2)cc1 | > 100 µM |
| O=C(/C=C/c1ccc2c(c1)OCO2)Cc1nc2ncccc2[nH]c1=O | > 100 µM |
| CC(=O)Nc1nc(NC(C)=O)c2[nH]c(CO)nc2n1 | > 100 µM |
| COC(=O)C1CC(C=[N+](C)C)=C(SC)N1C(=O)OCc1ccccc1 (centres undefined) | > 100 µM |
| Nc1nccc(-c2c[nH]c3cc(Br)ccc23)n1 | 86.8 µM |

What follows are compounds tested on SK-MEL-5 melanoma (assay: NCI tumour cell line growth inhibition, 48 h).

| SMILES | TGI |
| --- | --- |
| O=C(O)c1nc2nc(Cl)c(Cl)nc2[nH]1 | > 100 µM |
| CN(C)CCNS(=O)(=O)c1ccc(N)cc1 | > 100 µM |
| COc1ccc(N=NC(=Nc2ccccc2)c2ccc(N(CCC#N)CCC#N)cc2)cc1 | > 100 µM |
| O=C(/C=C/c1ccc2c(c1)OCO2)Cc1nc2ncccc2[nH]c1=O | > 100 µM |
| CC(=O)Nc1nc(NC(C)=O)c2[nH]c(CO)nc2n1 | > 100 µM |
| COC(=O)C1CC(C=[N+](C)C)=C(SC)N1C(=O)OCc1ccccc1 (centres undefined) | > 100 µM |
| Nc1nccc(-c2c[nH]c3cc(Br)ccc23)n1 | 36.7 µM |

What follows are compounds tested on SK-OV-3 ovarian (assay: NCI tumour cell line growth inhibition, 48 h).

| SMILES | TGI |
| --- | --- |
| O=C(O)c1nc2nc(Cl)c(Cl)nc2[nH]1 | > 100 µM |
| CN(C)CCNS(=O)(=O)c1ccc(N)cc1 | > 100 µM |
| COc1ccc(N=NC(=Nc2ccccc2)c2ccc(N(CCC#N)CCC#N)cc2)cc1 | > 100 µM |
| O=C(/C=C/c1ccc2c(c1)OCO2)Cc1nc2ncccc2[nH]c1=O | > 100 µM |
| CC(=O)Nc1nc(NC(C)=O)c2[nH]c(CO)nc2n1 | > 100 µM |
| COC(=O)C1CC(C=[N+](C)C)=C(SC)N1C(=O)OCc1ccccc1 (centres undefined) | > 100 µM |
| Nc1nccc(-c2c[nH]c3cc(Br)ccc23)n1 | 99.4 µM |

These compounds were tested on SN12C renal (assay: NCI tumour cell line growth inhibition, 48 h).

| SMILES | TGI |
| --- | --- |
| O=C(O)c1nc2nc(Cl)c(Cl)nc2[nH]1 | > 100 µM |
| CN(C)CCNS(=O)(=O)c1ccc(N)cc1 | > 100 µM |
| COc1ccc(N=NC(=Nc2ccccc2)c2ccc(N(CCC#N)CCC#N)cc2)cc1 | > 100 µM |
| O=C(/C=C/c1ccc2c(c1)OCO2)Cc1nc2ncccc2[nH]c1=O | > 100 µM |
| CC(=O)Nc1nc(NC(C)=O)c2[nH]c(CO)nc2n1 | > 100 µM |
| Nc1nccc(-c2c[nH]c3cc(Br)ccc23)n1 | 49.8 µM |

What follows are compounds tested on SNB-19 CNS (assay: NCI tumour cell line growth inhibition, 48 h).

| SMILES | TGI |
| --- | --- |
| O=C(O)c1nc2nc(Cl)c(Cl)nc2[nH]1 | > 100 µM |
| CN(C)CCNS(=O)(=O)c1ccc(N)cc1 | > 100 µM |
| COc1ccc(N=NC(=Nc2ccccc2)c2ccc(N(CCC#N)CCC#N)cc2)cc1 | > 100 µM |
| O=C(/C=C/c1ccc2c(c1)OCO2)Cc1nc2ncccc2[nH]c1=O | > 100 µM |
| CC(=O)Nc1nc(NC(C)=O)c2[nH]c(CO)nc2n1 | > 100 µM |
| COC(=O)C1CC(C=[N+](C)C)=C(SC)N1C(=O)OCc1ccccc1 (centres undefined) | > 100 µM |
| Nc1nccc(-c2c[nH]c3cc(Br)ccc23)n1 | 47.5 µM |

These compounds were tested on SNB-75 CNS (assay: NCI tumour cell line growth inhibition, 48 h).

| SMILES | TGI |
| --- | --- |
| O=C(O)c1nc2nc(Cl)c(Cl)nc2[nH]1 | > 100 µM |
| CN(C)CCNS(=O)(=O)c1ccc(N)cc1 | > 100 µM |
| COc1ccc(N=NC(=Nc2ccccc2)c2ccc(N(CCC#N)CCC#N)cc2)cc1 | > 100 µM |
| CC(=O)Nc1nc(NC(C)=O)c2[nH]c(CO)nc2n1 | > 100 µM |
| COC(=O)C1CC(C=[N+](C)C)=C(SC)N1C(=O)OCc1ccccc1 (centres undefined) | > 100 µM |
| Nc1nccc(-c2c[nH]c3cc(Br)ccc23)n1 | > 100 µM |

These compounds were tested on SR leukemia (assay: NCI tumour cell line growth inhibition, 48 h).

| SMILES | TGI |
| --- | --- |
| O=C(O)c1nc2nc(Cl)c(Cl)nc2[nH]1 | > 100 µM |
| CN(C)CCNS(=O)(=O)c1ccc(N)cc1 | > 100 µM |
| COc1ccc(N=NC(=Nc2ccccc2)c2ccc(N(CCC#N)CCC#N)cc2)cc1 | > 100 µM |
| O=C(/C=C/c1ccc2c(c1)OCO2)Cc1nc2ncccc2[nH]c1=O | > 100 µM |
| CC(=O)Nc1nc(NC(C)=O)c2[nH]c(CO)nc2n1 | > 100 µM |
| COC(=O)C1CC(C=[N+](C)C)=C(SC)N1C(=O)OCc1ccccc1 (centres undefined) | > 100 µM |
| Nc1nccc(-c2c[nH]c3cc(Br)ccc23)n1 | 46.7 µM |

Each compound was assayed on SW-620 colon (assay: NCI tumour cell line growth inhibition, 48 h).

| SMILES | TGI |
| --- | --- |
| O=C(O)c1nc2nc(Cl)c(Cl)nc2[nH]1 | > 100 µM |
| CN(C)CCNS(=O)(=O)c1ccc(N)cc1 | > 100 µM |
| COc1ccc(N=NC(=Nc2ccccc2)c2ccc(N(CCC#N)CCC#N)cc2)cc1 | > 100 µM |
| O=C(/C=C/c1ccc2c(c1)OCO2)Cc1nc2ncccc2[nH]c1=O | > 100 µM |
| CC(=O)Nc1nc(NC(C)=O)c2[nH]c(CO)nc2n1 | > 100 µM |
| COC(=O)C1CC(C=[N+](C)C)=C(SC)N1C(=O)OCc1ccccc1 (centres undefined) | > 100 µM |
| Nc1nccc(-c2c[nH]c3cc(Br)ccc23)n1 | > 100 µM |

The compounds below were run on T-47D breast (assay: NCI tumour cell line growth inhibition, 48 h).

| SMILES | TGI |
| --- | --- |
| O=C(O)c1nc2nc(Cl)c(Cl)nc2[nH]1 | > 100 µM |
| CN(C)CCNS(=O)(=O)c1ccc(N)cc1 | > 100 µM |
| COc1ccc(N=NC(=Nc2ccccc2)c2ccc(N(CCC#N)CCC#N)cc2)cc1 | > 100 µM |
| O=C(/C=C/c1ccc2c(c1)OCO2)Cc1nc2ncccc2[nH]c1=O | > 100 µM |
| CC(=O)Nc1nc(NC(C)=O)c2[nH]c(CO)nc2n1 | > 100 µM |
| COC(=O)C1CC(C=[N+](C)C)=C(SC)N1C(=O)OCc1ccccc1 (centres undefined) | > 100 µM |
| Nc1nccc(-c2c[nH]c3cc(Br)ccc23)n1 | > 100 µM |

The compounds below were run on TK-10 renal (assay: NCI tumour cell line growth inhibition, 48 h).

| SMILES | TGI |
| --- | --- |
| O=C(O)c1nc2nc(Cl)c(Cl)nc2[nH]1 | > 100 µM |
| CN(C)CCNS(=O)(=O)c1ccc(N)cc1 | > 100 µM |
| COc1ccc(N=NC(=Nc2ccccc2)c2ccc(N(CCC#N)CCC#N)cc2)cc1 | > 100 µM |
| O=C(/C=C/c1ccc2c(c1)OCO2)Cc1nc2ncccc2[nH]c1=O | > 100 µM |
| CC(=O)Nc1nc(NC(C)=O)c2[nH]c(CO)nc2n1 | > 100 µM |
| COC(=O)C1CC(C=[N+](C)C)=C(SC)N1C(=O)OCc1ccccc1 (centres undefined) | > 100 µM |
| Nc1nccc(-c2c[nH]c3cc(Br)ccc23)n1 | 59 µM |

What follows are compounds tested on U251 CNS (assay: NCI tumour cell line growth inhibition, 48 h).

| SMILES | TGI |
| --- | --- |
| O=C(O)c1nc2nc(Cl)c(Cl)nc2[nH]1 | > 100 µM |
| CN(C)CCNS(=O)(=O)c1ccc(N)cc1 | > 100 µM |
| COc1ccc(N=NC(=Nc2ccccc2)c2ccc(N(CCC#N)CCC#N)cc2)cc1 | > 100 µM |
| O=C(/C=C/c1ccc2c(c1)OCO2)Cc1nc2ncccc2[nH]c1=O | > 100 µM |
| CC(=O)Nc1nc(NC(C)=O)c2[nH]c(CO)nc2n1 | > 100 µM |
| COC(=O)C1CC(C=[N+](C)C)=C(SC)N1C(=O)OCc1ccccc1 (centres undefined) | > 100 µM |
| Nc1nccc(-c2c[nH]c3cc(Br)ccc23)n1 | > 100 µM |

What follows are compounds tested on UACC-257 melanoma (assay: NCI tumour cell line growth inhibition, 48 h).

| SMILES | TGI |
| --- | --- |
| O=C(O)c1nc2nc(Cl)c(Cl)nc2[nH]1 | > 100 µM |
| CN(C)CCNS(=O)(=O)c1ccc(N)cc1 | > 100 µM |
| COc1ccc(N=NC(=Nc2ccccc2)c2ccc(N(CCC#N)CCC#N)cc2)cc1 | 56.8 µM |
| O=C(/C=C/c1ccc2c(c1)OCO2)Cc1nc2ncccc2[nH]c1=O | > 100 µM |
| CC(=O)Nc1nc(NC(C)=O)c2[nH]c(CO)nc2n1 | > 100 µM |
| COC(=O)C1CC(C=[N+](C)C)=C(SC)N1C(=O)OCc1ccccc1 (centres undefined) | > 100 µM |
| Nc1nccc(-c2c[nH]c3cc(Br)ccc23)n1 | 86.7 µM |

What follows are compounds tested on UACC-62 melanoma (assay: NCI tumour cell line growth inhibition, 48 h).

| SMILES | TGI |
| --- | --- |
| O=C(O)c1nc2nc(Cl)c(Cl)nc2[nH]1 | > 100 µM |
| CN(C)CCNS(=O)(=O)c1ccc(N)cc1 | > 100 µM |
| COc1ccc(N=NC(=Nc2ccccc2)c2ccc(N(CCC#N)CCC#N)cc2)cc1 | > 100 µM |
| O=C(/C=C/c1ccc2c(c1)OCO2)Cc1nc2ncccc2[nH]c1=O | > 100 µM |
| CC(=O)Nc1nc(NC(C)=O)c2[nH]c(CO)nc2n1 | > 100 µM |
| COC(=O)C1CC(C=[N+](C)C)=C(SC)N1C(=O)OCc1ccccc1 (centres undefined) | > 100 µM |
| Nc1nccc(-c2c[nH]c3cc(Br)ccc23)n1 | 47.6 µM |

Each compound was assayed on UO-31 renal (assay: NCI tumour cell line growth inhibition, 48 h).

| SMILES | TGI |
| --- | --- |
| CN(C)CCNS(=O)(=O)c1ccc(N)cc1 | > 100 µM |
| COc1ccc(N=NC(=Nc2ccccc2)c2ccc(N(CCC#N)CCC#N)cc2)cc1 | > 100 µM |
| O=C(/C=C/c1ccc2c(c1)OCO2)Cc1nc2ncccc2[nH]c1=O | > 100 µM |
| CC(=O)Nc1nc(NC(C)=O)c2[nH]c(CO)nc2n1 | > 100 µM |
| COC(=O)C1CC(C=[N+](C)C)=C(SC)N1C(=O)OCc1ccccc1 (centres undefined) | > 100 µM |
| Nc1nccc(-c2c[nH]c3cc(Br)ccc23)n1 | 39 µM |
